{"source": "paper PMC10831447", "about": "(Molecular Cancer Therapeutics, 2023)", "key": {"25 RCC PDX models": {"test_system": "25 RCC PDX models", "assay": "RCC PDX in vivo study, all models", "parameters": "species or system mouse"}, "[1]": {"details": "cited from earlier work"}, "A549 wild-type [2]": {"test_system": "A549 wild-type", "assay": "Colony formation assay", "type": "cell-based, human", "details": "1E−05, 2.5E−06, 5E−07 mol/L"}, "A549 p53 KO [3]": {"test_system": "A549 p53 KO", "assay": "Colony formation assay", "type": "cell-based, human", "details": "isogenic A549 TP53 KO; 1E−05, 2.5E−06, 5E−07 mol/L"}, "A549 p53 KO [4]": {"test_system": "A549 p53 KO", "assay": "Cell-cycle analysis by FACS", "type": "cell-based, human", "details": "A549 TP53 KO; M8891 1E−06 mol/L, nutlin-3A 3E−06 mol/L"}, "A549 wild-type [5]": {"test_system": "A549 wild-type", "assay": "Cell-cycle analysis by FACS", "type": "cell-based, human", "details": "A549 parental; 24 hours; M8891 1E−06 mol/L, nutlin-3A 3E−06 mol/L"}}, "data": [{"smiles": "CCN(CC)CCNC(=O)c1c(C)[nH]c(/C=C2\\C(=O)Nc3ccc(F)cc32)c1C", "note": "[Sunitinib]", "values": [{"measurement": "integrated survival analysis based on RTV changes (AUC)", "setting": "25 RCC PDX models; across all 25 PDX models", "value": "clear survival benefit"}, {"measurement": "antitumor activity in cohort of 25 RCC PDX models", "setting": "25 RCC PDX models; dose and schedule tested in this study", "value": "moderate"}]}, {"smiles": "CO[C@@H]1[C@H](OC(=O)NC(=O)CCl)CC[C@]2(CO2)[C@H]1[C@@]1(C)O[C@@H]1CC=C(C)C", "note": "[TNP-470]", "values": [{"measurement": "elimination", "setting": "[1]", "value": "rapid elimination"}, {"measurement": "side effects", "setting": "[1]", "value": "neurologic side effects"}, {"measurement": "colony formation", "setting": "A549 wild-type [2]", "value": "blocked"}, {"measurement": "colony formation", "setting": "A549 p53 KO [3]", "value": "resistant"}]}, {"smiles": "COc1ccc(C2=N[C@@H](c3ccc(Cl)cc3)[C@@H](c3ccc(Cl)cc3)N2C(=O)N2CCNC(=O)C2)c(OC(C)C)c1", "note": "[nutlin-3A]", "values": [{"measurement": "shift in cell-cycle distribution", "setting": "A549 p53 KO [4]", "value": "not observed"}, {"measurement": "colony formation", "setting": "A549 wild-type [2]", "value": "significantly reduced colony formation"}, {"measurement": "cell-cycle distribution", "setting": "A549 wild-type [5]", "value": "more prominent arrest in G2–M"}, {"measurement": "colony formation", "setting": "A549 p53 KO [3]", "value": "resistant"}]}]}
